From ChEMBL document CHEMBL1151025, “Synthesis and influenza neuraminidase inhibitory activity of aromatic analogues of sialic acid” (Bioorg Med Chem Lett, 1995)

Experiments:
[1] = Compound was tested for Inhibition of influenza A [influenza A/Shandong/09/93 (H3N2)] neuraminidase; design: species or system Influenza A virus
MDCK = experiment: Inhibitory activity against Influenza virus in MDCK cells; type: functional, cell-based; conditions: Canis lupus familiaris

**Q.** Which results are given for `CC(=O)Nc1c(NC(=N)N)cc(C(=O)O)cc1[C@H](O)[C@H](O)CO`?
**A.** IC50 [1]: > 100000 nM; Ki [1]: > 100000 nM

**Q.** Which results are given for `CC(=O)N[C@H]1[C@H]([C@H](O)[C@H](O)CO)OC(C(=O)O)=C[C@@H]1NC(=N)N` [ZANAMIVIR]?
**A.** EC50 (MDCK): 40 nM; IC50 [1]: 5 nM; Ki [1]: 1 nM
